Laboratory results as given in patent US20240254121A1, “ALKYLAMIDE SUBSTITUTED, ANNULATED IMIDAZOLES AND USE THEREOF AS INSECTICIDES” (Bayer Aktiengesellschaft, priority 2021, published 2024).

What was measured:
Format in all cases: in vivo
[1] = tested on: larvae of the southern green stink bug (Nezara viridula); experiment: Nezara viridula spray test; details: 96 h, barley plants, after 4 days
Procedure: Nezara viridula—Spray Test • Solvent: 78.0 parts by weight of acetone • 1.5 parts by weight of dimethylformamide • Emulsifier: alkylarylpolyglycol ether
(§1) To produce a suitable preparation of active compound, 1 part by weight of active compound is mixed with the stated amount of solvent, and the concentrate is diluted with water, containing an emulsifier concentration of 1000 ppm, to the desired concentration. Further test concentrations are prepared by dilution with emulsifier containing water.
Barley plants (Hordeum vulgare) are sprayed with a test solution containing the desired concentration of the active ingredient and are infested with larvae of the southern green stink bug (Nezara viridula).
After 4 days mortality in % is determined. 100% means all the stink bugs have been killed; 0% means none of the stink bugs have been killed.

[2] = tested on: cotton aphid (Aphis gossypii); experiment: Aphis gossypii oral test; details: 120 h, after 5 days
Procedure: Aphis gossypii—Oral Test • Solvent: 100 Parts by Weight Acetone
(§2) To produce a suitable preparation of active compound, 1 part by weight of active compound is mixed with the stated amount of solvent, and the concentrate is diluted with water to the desired concentration.
(§3) 50 μL compound solution is filled in microtiter plates and 150 μL IPL41 insect medium (33%+15% sugar) is added to obtain a total volume of 200 μL per well. Afterwards the plates are sealed with parafilm through which a mixed population of the cotton aphid (Aphis gossypii) can suck on the compound preparation.
(§4) After 5 days mortality in % is determined. 100% means all aphids have been killed and 0% means none of the aphids have been killed.

[3] = tested on: fall armyworm larvae (Spodoptera frugiperda); experiment: Spodoptera frugiperda spray test; details: 168 h, maize leaf sections, after 7 days
Procedure: Spodoptera frugiperda—Spray Test • Solvent: 78.0 parts by weight acetone • 1.5 parts by weight dimethylformamide • Emulsifier: alkylarylpolyglycol ether
as §1, with “solvents” for “solvent,”, “and” for “and the concentrate”
Maize (Zea mays) leaf sections are sprayed with a preparation of the active ingredient of the desired concentration. Once dry, the leaf sections are infested with fall armyworm larvae (Spodoptera frugiperda).
After 7 days mortality in % is determined. 100% means all caterpillars have been killed and 0% means none of the caterpillars have been killed.

[4] = tested on: green peach aphid (Myzus persicae); experiment: Myzus persicae oral test; details: 120 h, after 5 days
Procedure: Myzus persicae—Oral Test • Solvent: 100 parts by weight acetone
as §2
as §3, with “green peach” for “cotton”, “(Myzus persicae)” for “(Aphis gossypii)”
as §4

[5] = tested on: cattle tick larvae (Rhipicephalus microplus); experiment: Rhipicephalus (Boophilus) microplus in-vitro contact test, larval cattle tick (strain Parkhurst, resistant against synthetic pyrethroids); details: 1 μg/cm^2 (=100 g/ha), after 48 hours, read-out: efficacy (larvae dead or moribund)
Procedure: Rhipicephalus (Boophilus) Microplus—In-Vitro Contact Tests Larval Cattle Tick (Strain Parkhurst, Resistant Against Synthetic Pyrethroids)
9 mg compound is solved in 1 mL acetone and diluted with acetone to the desired concentration. 250 μL of the test solution is filled in 25 mL glass test tubes and homogeneously distributed on the inner walls by rotation and tilting on a shaking device (2 h at 30 rpm). With a compound concentration of 900 ppm, an inner surface of 44.7 cm^2 and a homogeneous distribution, a dose of 5 μg/cm^2 is achieved.
After the solvent has evaporated, each test tube is filled with 20-50 cattle tick larvae (Rhipicephalus microplus), closed with a perforated lid and incubated in a horizontal position at 85% relative humidity and 27° C. in an incubator. After 48 hours efficacy is determined. The larvae are patted on the ground of the tubes and negative geotactic behavior is recorded.
An efficacy of 100% means all larvae are dead or moribund; 0% means no larvae are dead or moribund.

[6] = tested on: adult mosquitoes Aedes aegypti strain MONHEIM; experiment: Aedes aegypti test (AEDSAE surface treatment & contact assay); details: 24 hours after contact, read-out: efficacy (mortality); for mortality at 20 mg/m2: surface concentration 20 mg/m^2, 30 minutes exposure; for mortality at 4 mg/m2: surface concentration 4 mg/m^2, 30 minutes exposure
Procedure: Aedes aegypti Test (AEDSAE Surface Treatment & Contact Assay) • Solvent: Aceton+2000 ppm rapeseed oil methyl ester (RME)
(§5) In order to produce a sufficient, active ingredient containing solution it is necessary to solve the test compound in the solvent-mix (acetone at 2 mg/ml/RME 2000 ppm). This solution is pipetted onto a glazed tile and after evaporation of the acetone, adult mosquitoes of the species Aedes aegypti strain MONHEIM are placed onto the dried surface. The exposure time is 30 minutes. Mortality in percent (%) is determined 24 hours after contact of the insects to the treated surface. 100% mortality means that all tested insects are dead, whereas 0% means that no insect died.

[7] = tested on: adult mosquitoes Culex quinquefasciatus strain P00; experiment: Culex quinquefasciatus test (CULXFA surface treatment & contact assay); details: 24 hours after contact, read-out: efficacy (mortality); for mortality at 4 mg/m2: surface concentration 4 mg/m^2, 30 minutes exposure
Procedure: Culex quinquefasciatus Test (CULXFA Surface Treatment & Contact Assay) • Solvent: Aceton+2000 ppm rapeseed oil methyl ester (RME)
as §5, with “2,000” for “2000”, “Culex quinquefasciatus” for “Aedes aegypti”, “P00” for “MONHEIM”

[8] = tested on: larvae of the banded cucumber beetle (Diabrotica balteata); experiment: Diabrotica balteata spray test; details: 168 h, 100 g/ha (=32 μg/well), wheat seeds, after 7 days, read-out: efficacy (seedling growth)
Procedure: Diabrotica Balteata—Spray Test
• Solvent: 78.0 Parts by Weight of Acetone • 1.5 parts by weight of dimethylformamide • Emulsifier: Alkylarylpolyglycol Ether
as §1
Soaked wheat seeds (Triticum aestivum) are placed in a multiple well plate filled with agar and some water and are incubated for 1 day to germinate (5 seeds per well). The germinated wheat seeds are sprayed with a test solution containing the desired concentration of the active ingredient. Afterwards each unit is infected with 10-20 larvae of the banded cucumber beetle (Diabrotica balteata).
After 7 days efficacy in % is determined. 100% means all the seedlings have grown up like in the untreated, uninfected control; 0% means none of the seedlings have grown.

[9] = tested on: adult flies Musca domestica strain WHO-N; experiment: Musca domestica test (MUSCDO surface treatment & contact assay); details: 24 hours after contact, read-out: efficacy (mortality); for mortality at 4 mg/m2: surface concentration 4 mg/m^2, 30 minutes exposure; for mortality at 20 mg/m2: surface concentration 20 mg/m^2, 30 minutes exposure
Procedure: Musca domestica Test (MUSCDO Surface Treatment & Contact Assay) • Solvent: Aceton+2000 ppm rapeseed oil methyl ester (RME)
as §5, with “flies” for “mosquitoes”, “Musca domestica” for “Aedes aegypti”, “WHO-N” for “MONHEIM”

C[C@H](NC(=O)c1cc(Cl)cc(S(C)(=O)=O)c1)c1nc2cccnc2n1-c1ccc(C#N)cn1 [Example I-5]
mortality at 500 g/ha [1]: 100% | mortality at 100 ppm [2]: 100% | mortality at 100 g/ha [3]: 100% | mortality at 20 ppm [4]: 100%

C[C@H](NC(=O)c1cc(C#N)cc(C(C)(C)C#N)c1)c1nc2cccnc2n1-c1ccc(C#N)cn1 [Example I-7]
pest or weed control at 1 µg/cm2, 100 g/ha [5]: 90% | mortality at 100 ppm [2]: 100% | mortality at 20 mg/m2 [6]: 80 to 100% | mortality at 100 g/ha [3]: 100% | mortality at 20 ppm [4]: 100%

CC(NC(=O)c1cc(Cl)cc(S(C)(=O)=O)c1)c1nc2cccnc2n1-c1ccc(Cl)cn1 (centres unmarked) [Example I-10]
mortality at 500 g/ha [1]: 100% | mortality at 4 mg/m2 [7]: 80 to 100% | mortality at 100 ppm [2]: 100% | mortality at 4 mg/m2 [6]: 80 to 100% | mortality at 20 mg/m2 [6]: 80 to 100% | mortality at 100 g/ha [3]: 100% | mortality at 20 ppm [4]: 100%

CC(NC(=O)c1cc(OC(F)(F)F)cc(C2(C#N)CC2)c1)c1nc2cccnc2n1-c1ccc(Cl)cn1 (centres unmarked) [Example I-11]
pest or weed control at 1 µg/cm2, 100 g/ha [5]: 90% | pest or weed control at 32 µg/disc, 100 g/ha [8]: 100% | mortality at 4 mg/m2 [9]: 80 to 100% | mortality at 20 mg/m2 [9]: 80 to 100% | mortality at 20 mg/m2 [6]: 80 to 100% | mortality at 100 g/ha [3]: 100%

CC(NC(=O)c1cc(OC(F)(F)F)cc(S(C)(=O)=O)c1)c1nc2cccnc2n1-c1ccc(Cl)cn1 (centres unmarked) [Example I-12]
mortality at 500 g/ha [1]: 100% | pest or weed control at 32 µg/disc, 100 g/ha [8]: 100% | mortality at 100 g/ha [3]: 100%

CC(NC(=O)c1cc(OC(F)(F)F)cc(C(C)(C)C#N)c1)c1nc2cccnc2n1-c1ccc(Cl)cn1 (centres unmarked) [Example I-14]
pest or weed control at 1 µg/cm2, 100 g/ha [5]: 100% | mortality at 20 mg/m2 [9]: 80 to 100% | mortality at 20 mg/m2 [6]: 80 to 100% | mortality at 100 g/ha [3]: 83%

C[C@H](NC(=O)c1cc(OC(F)(F)F)cc(OC(F)(F)F)c1)c1nc2cccnc2n1-c1ccc(C#N)cn1 [Example I-16]
pest or weed control at 1 µg/cm2, 100 g/ha [5]: 100% | pest or weed control at 32 µg/disc, 100 g/ha [8]: 100% | mortality at 4 mg/m2 [9]: 80 to 100% | mortality at 20 mg/m2 [9]: 80 to 100% | mortality at 4 mg/m2 [6]: 80 to 100% | mortality at 20 mg/m2 [6]: 80 to 100% | mortality at 100 g/ha [3]: 100%

Cc1ccc2nc(C(C)NC(=O)c3cc(Cl)cc(OC(F)(F)F)c3)n(-c3ccc(C#N)cn3)c2n1 (centres unmarked) [Example I-20]
mortality at 100 g/ha [3]: 100%

Cc1ccc2nc(C(C)NC(=O)c3cc(OC(F)(F)F)cc(S(C)(=O)=O)c3)n(-c3ccc(C#N)cn3)c2n1 (centres unmarked) [Example I-23]
mortality at 100 g/ha [3]: 100%

COC(=O)c1ccc(-n2c(C(C)NC(=O)c3cc(OC(F)(F)F)cc(S(C)(=O)=O)c3)nc3cccnc32)nc1 (centres unmarked) [Example I-24]
mortality at 4 mg/m2 [7]: 80 to 100% | mortality at 20 mg/m2 ([7]; surface concentration 20 mg/m^2, 30 minutes exposure): 80 to 100% | mortality at 100 ppm [2]: 100% | mortality at 4 mg/m2 [6]: 80 to 100% | mortality at 20 mg/m2 [6]: 80 to 100% | mortality at 20 ppm [4]: 100%

CNC(=O)c1ccc(-n2c(C(C)NC(=O)c3cc(OC(F)(F)F)cc(S(C)(=O)=O)c3)nc3cccnc32)nc1 (centres unmarked) [Example I-28]
mortality at 500 g/ha [1]: 100%

CC(NC(=O)c1cc(OC(F)(F)F)cc(S(C)(=O)=O)c1)c1nc2cccnc2n1-c1ccc(C(=O)N(C)C)cn1 (centres unmarked) [Example I-29]
mortality at 500 g/ha [1]: 90%

CC(NC(=O)c1cc(C(F)(F)F)cc(C(F)(F)F)c1)c1nc2cccnc2n1-c1ccc(C(N)=O)cn1 (centres unmarked) [Example I-30]
mortality at 500 g/ha [1]: 100%

C[C@H](NC(=O)c1cc(C(F)(F)F)cc(C(F)(F)F)c1)c1nc2ncccc2n1-c1ccc(C#N)cn1 [Example I-32]
mortality at 100 g/ha [3]: 100%

CC(NC(=O)c1cc(OC(F)(F)F)cc(C2CC2)c1)c1nc2ncccc2n1-c1ccc(Cl)cn1 (centres unmarked) [Example I-33, N-[1-[I-(5-chloro-2-pyridyl)imidazo[4,5-b]pyridin-2-yl]ethyl]-3-cyclopropyl-5-(trifluoromethoxy) benzamide]
mortality at 4 mg/m2 [7]: 80 to 100% | mortality at 100 g/ha [3]: 100%

CC(NC(=O)c1cc(Cl)cc(OC(F)(F)F)c1)c1nc2cc(F)cnc2n1-c1ccc(C#N)cn1 (centres unmarked) [Example I-34]
pest or weed control at 32 µg/disc, 100 g/ha [8]: 100% | mortality at 100 g/ha [3]: 100%

CC(NC(=O)c1cc(OC(F)(F)F)cc(S(=O)(=O)C(F)F)c1)c1nc2cccnc2n1-c1ccc(C#N)cn1 (centres unmarked) [Example I-36]
pest or weed control at 32 µg/disc, 100 g/ha [8]: 100% | mortality at 100 g/ha [3]: 100%

CC(NC(=O)c1cc(OC(F)(F)F)cc(C(C)(F)F)c1)c1nc2cccnc2n1-c1ccc(C#N)cn1 (centres unmarked) [Example I-37]
pest or weed control at 32 µg/disc, 100 g/ha [8]: 100% | mortality at 100 g/ha [3]: 100%

CC(NC(=O)c1cc(C(F)(F)F)cc(C(F)(F)F)c1)c1nc2cnccc2n1-c1ccc(Cl)cn1 (centres unmarked) [Example I-39, N-[1-[1-(5-chloro-2-pyridyl)imidazo[4,5-c]pyridin-2-yl]ethyl]-3,5-bis(trifluoromethyl)benzamide]
mortality at 500 g/ha [1]: 100% | pest or weed control at 32 µg/disc, 100 g/ha [8]: 100%

CC(NC(=O)c1cc(Br)cc(OC(F)(F)F)c1)c1nc2cccnc2n1-c1ccc(C#N)cn1 (centres unmarked) [Example I-41]
pest or weed control at 32 µg/disc, 100 g/ha [8]: 100% | mortality at 100 g/ha [3]: 100%

CC(NC(=O)c1cc(C#N)cc(OC(F)(F)F)c1)c1nc2cccnc2n1-c1ccc(C#N)cn1 (centres unmarked) [Example I-42]
mortality at 100 g/ha [3]: 100%

CC(NC(=O)c1cc(C(F)F)cc(C(F)F)c1)c1nc2cccnc2n1-c1ccc(C#N)cn1 (centres unmarked) [Example I-44]
mortality at 100 g/ha [3]: 83%
